Reference: patent publication US11753446B2, “Beta-hairpin peptidomimetics” (POLYPHOR AG, priority 2014, dated 2023)
Where two headings read alike, the source gives them in different places. Where a SMILES comes first, the peptide text is derived from it. Bridges are numbered along the chain shown (N, C = ends). [ ]: non-standard residue; d: D form. Gly(cPent) = N[C@H](C(=O)O)C1CCCC1; dPen = CC(C)(S)[C@@H](N)C(=O)O; Chg = N[C@H](C(=O)O)C1CCCCC1; Tle = CC(C)(C)[C@H](N)C(=O)O; dDab = NCC[C@@H](N)C(=O)O; NMeA = CN[C@@H](C)C(=O)O; Orn = NCCC[C@H](N)C(=O)O; Dab = NCC[C@H](N)C(=O)O; Dap = NC[C@H](N)C(=O)O

What was measured:
[1] = system: human red blood cells (hRBC); assay: Hemolysis: hemolytic activity at 100 μg/mL, 1 h at 37° C.
Description: Lyophilized peptides were weighed on a Microbalance (Mettler MT5) and dissolved in sterile water to a final concentration of 1 mg/mL. Stock solutions were kept at +4° C., light protected.
The peptides were tested for their hemolytic activity against human red blood cells (hRBC). Fresh hRBC were washed three times with phosphate buffered saline (PBS) and centrifuged for 5 min at 3000×g. Compounds (100 μg/mL) were incubated with 20% hRBC (v/v) for 1 h at 37° C. and shaking at 300 rpm. The final erythrocyte concentration was approximately 0.9×10^9 cells/mL. A value of 0% and 100% cell lyses, respectively, was determined by incubation of hRBC in the presence of PBS containing 0.001% acetic acid and 2.5% Triton X-100 in H2O, respectively. The samples were centrifuged, the supernatants were 8-fold diluted in PBS buffer and the optical densities (OD) were measured at 540 nm.
Percent hemolysis was calculated as follows: (OD540peptide/OD540H2O)×100%.

[2] = system: Escherichia coli ATCC 25922; assay type: cell-based
Description: (§1) Stock solutions were kept at +4° C., light protected.
(§2) The selective antimicrobial activities of the peptides were determined in 96-well plates (Greiner, polystyrene) by the standard NCCLS broth microdilution method (National Committee for Clinical Laboratory Standards 1993. Methods for dilution antimicrobial susceptibility tests for bacteria that grow aerobically, 3rd ed. Approved standard M7-A6; National Committee for Clinical laboratory standards, Wayne, Pa.) with slight modifications. Inocula of the microorganisms were diluted into Mueller-Hinton II (MH, cation adjusted) broth and compared with a 0.5 McFarland standard to give appr. 10^6 colony forming units (CFU)/mL. Aliquots (90 μl) of inoculate were added to 10 μl of MH broth+P-80 (Polysorbate 80, 0.002% final concentration) containing the peptide in serial two-fold dilutions. The following microorganisms were used to determine antibiotic selectivity of the peptides: Escherichia coli ATCC 25922, Klebsiella pneumoniae ATCC 13883 and Acinetobacter baumannii DSM 30008.

[3] = system: Klebsiella pneumoniae ATCC 13883; assay type: cell-based
Description: as §1, §2

[4] = system: Acinetobacter baumannii DSM 30008; assay type: cell-based
Description: as §1, §2

[5] = Mueller-Hinton II broth, 18-20 hours at 35° C.

Compound	Hemolysis at 100 μg/mL ([1]; 100 μg/mL, 20% hRBC, 1 h at 37° C.)	Escherichia coli ATCC 25922 MIC [2, 5]	Klebsiella pneumoniae ATCC 13883 MIC [3, 5]	Acinetobacter baumannii DSM 30008 MIC [4, 5]	Hemolysis at 100 μg/mL ([1]; red cells of human, 1 h, 100)	Escherichia coli ATCC 25922 MIC ([2]; ATCC 25922)	Klebsiella pneumoniae ATCC 13883 MIC ([3]; ATCC 13883)	Acinetobacter baumannii DSM 30008 MIC ([4]; DSM 30008)
CC(C)C[C@@H]1NC(=O)[C@H](CCCCN)NC(=O)[C@@H](CCN)NC(=O)[C@H](C(C)C)NC(=O)[C@@H]2CSSC[C@H](NC1=O)C(=O)N[C@@H](Cc1ccc(O)cc1)C(=O)N[C@@H](CC(N)=O)C(=O)N[C@@H](CCCN)C(=O)N[C@H](CCN)C(=O)N[C@@H](CCN)C(=O)N[C@@H](Cc1c[nH]c3ccccc13)C(=O)N[C@@H](CO)C(=O)N[C@@H](Cc1ccc(O)cc1)C(=O)N2 [Example 67, cyclo(-Leu-Cys-Tyr-Asn-Orn-^DDab-Dab-Trp-Ser-Tyr-Cys-Val-^DDab-Lys-)] (HELM PEPTIDE1{C.V.[NCC[C@@H](N[*:1])C(=O)[*:2]].K.L.C.Y.N.[Orn].[NCC[C@@H](N[*:1])C(=O)[*:2]].[Dab].W.S.Y}$PEPTIDE1,PEPTIDE1,1:R3-6:R3|PEPTIDE1,PEPTIDE1,1:R1-14:R2$$$V2.0)	1%	1 µg/mL	1 µg/mL	1.5 µg/mL				
CC(C)C[C@@H]1NC(=O)[C@H](CCCNC(=N)N)NC(=O)[C@@H](CCN)NC(=O)[C@H]([C@@H](C)O)NC(=O)[C@@H]2CCNC(=O)C[C@H](NC1=O)C(=O)N[C@@H](Cc1ccc(O)cc1)C(=O)N[C@@H](CC(N)=O)C(=O)N[C@@H](CCCN)C(=O)N[C@H](CCN)C(=O)N[C@@H](CCN)C(=O)N[C@@H](Cc1c[nH]c3ccccc13)C(=O)N[C@@H](CO)C(=O)N[C@@H](C(C)(C)C)C(=O)N2 [Example 75, cyclo(-Leu-Asp-Tyr-Asn-Orn-^DDab-Dab-Trp-Ser-tBuGly-Dab-Thr-^DDab-Arg-)] (cyclo(LDYN[Orn][dDab][Dab]WS[Tle][Dab]T[dDab]R); lactam 2-11)					1%	1.5 µg/mL	1 µg/mL	1.5 µg/mL
CC(C)[C@@H]1NC(=O)[C@H](C)N(C)C(=O)[C@H]2CCCN2C(=O)[C@H](CO)NC(=O)[C@H](C)NC(=O)[C@H](C(C)(C)C)NC(=O)[C@H](CCN)NC(=O)[C@H](Cc2c[nH]c3ccccc23)NC(=O)[C@H](CCN)NC(=O)[C@@H](CCN)NC(=O)[C@H](CN)NC(=O)[C@H](CCN)NC(=O)[C@H](Cc2ccc(O)cc2)NC(=O)[C@H](CO)NC1=O [Example 44, cyclo(-Val-Ser-Tyr-Dab-Dap-^DDab-Dab-Trp-Dab-tBuGly-Ala-Ser-^DPro-NMeAla-)] (cyclo(AS[dP][NMeA]VSY[Dab][Dap][dDab][Dab]W[Dab][Tle]))					1%	1 µg/mL	0.5 µg/mL	2 µg/mL
CC(C)C[C@@H]1NC(=O)[C@H](CCN)NC(=O)[C@@H](CCN)NC(=O)[C@H](CCCN)NC(=O)[C@H](CC(N)=O)NC(=O)[C@H](Cc2ccc(O)cc2)NC(=O)[C@@H]2CSSC[C@H](NC(=O)[C@H](C(C)(C)C)NC(=O)[C@H](CO)NC1=O)C(=O)N[C@@H](C(C)C)C(=O)N[C@H](CCN)C(=O)N[C@@H](CCCNC(=N)N)C(=O)N[C@@H](CC(C)C)C(=O)N2 [Example 4, cyclo(-Leu-Cys-Tyr-Asn-Orn-^DDab-Dab-Leu-Ser-tBuGly-Cys-Val-^DDab-Arg-)] (cyclo(CV[dDab]RLCYN[Orn][dDab][Dab]LS[Tle]); disulfide 1-6)					4%	0.75 µg/mL	0.5 µg/mL	0.25 µg/mL
CC(C)[C@@H]1NC(=O)[C@@H]2CSSC[C@H](NC(=O)[C@H](C3CCCC3)NC(=O)[C@H](CCCNC(=N)N)NC(=O)[C@@H](CCN)NC1=O)C(=O)N[C@@H](Cc1ccc(O)cc1)C(=O)N[C@@H](CC(N)=O)C(=O)N[C@@H](CCCN)C(=O)N[C@H](CCN)C(=O)N[C@@H](CCN)C(=O)N[C@@H](Cc1c[nH]c3ccccc13)C(=O)N[C@@H](CO)C(=O)N[C@@H](Cc1ccc(O)cc1)C(=O)N2 [Example 59, cyclo(-Cpg-Cys-Tyr-Asn-Orn-^DDab-Dab-Trp-Ser-Tyr-Cys-Val-^DDab-Arg-)] (cyclo(CV[dDab]R[Gly(cPent)]CYN[Orn][dDab][Dab]WSY); disulfide 1-6)					1%	1 µg/mL	0.75 µg/mL	0.75 µg/mL
CC(C)C[C@@H]1NC(=O)[C@H](CCCNC(=N)N)NC(=O)[C@@H](CCCCN)NC(=O)[C@H](C(C)C)NC(=O)[C@@H]2CSSC[C@H](NC1=O)C(=O)N[C@@H](Cc1ccc(O)cc1)C(=O)N[C@@H](CC(N)=O)C(=O)N[C@@H](CCCN)C(=O)N[C@H](CCN)C(=O)N[C@@H](CCN)C(=O)N[C@@H](Cc1c[nH]c3ccccc13)C(=O)N[C@@H](CO)C(=O)N[C@@H](Cc1ccc(O)cc1)C(=O)N2 [Example 65, cyclo(-Leu-Cys-Tyr-Asn-Orn-^DDab-Dab-Trp-Ser-Tyr-Cys-Val-^DLys-Arg-)] (HELM PEPTIDE1{C.V.[dK].R.L.C.Y.N.[Orn].[NCC[C@@H](N[*:1])C(=O)[*:2]].[Dab].W.S.Y}$PEPTIDE1,PEPTIDE1,1:R3-6:R3|PEPTIDE1,PEPTIDE1,1:R1-14:R2$$$V2.0)					1%	2 µg/mL	1 µg/mL	1.25 µg/mL
CC[C@H](C)[C@@H]1NC(=O)[C@H](CCCNC(=N)N)NC(=O)[C@@H](CCN)NC(=O)[C@H](C(C)C)NC(=O)[C@@H]2CSSC[C@H](NC1=O)C(=O)N[C@@H](Cc1ccc(O)cc1)C(=O)N[C@@H](CC(N)=O)C(=O)N[C@@H](CCCN)C(=O)N[C@H](CCN)C(=O)N[C@@H](CCN)C(=O)N[C@@H](Cc1c[nH]c3ccccc13)C(=O)N[C@@H](CO)C(=O)N[C@@H](Cc1ccc(O)cc1)C(=O)N2 [Example 70, cyclo(-Ile-Cys-Tyr-Asn-Orn-^DDab-Dab-Trp-Ser-Tyr-Cys-Val-^DDab-Arg-)] (HELM PEPTIDE1{C.V.[NCC[C@@H](N[*:1])C(=O)[*:2]].R.I.C.Y.N.[Orn].[NCC[C@@H](N[*:1])C(=O)[*:2]].[Dab].W.S.Y}$PEPTIDE1,PEPTIDE1,1:R3-6:R3|PEPTIDE1,PEPTIDE1,1:R1-14:R2$$$V2.0)					1%	1 µg/mL	1 µg/mL	2.25 µg/mL
CC(C)C[C@@H]1NC(=O)[C@@H]2CCCN2C(=O)[C@H]2CCCN2C(=O)[C@H](CO)NC(=O)[C@@H]2NC(=O)[C@H](C3CCCCC3)NC(=O)[C@H](CCN)NC(=O)[C@H](Cc3c[nH]c4ccccc34)NC(=O)[C@H](CCN)NC(=O)[C@@H](CCN)NC(=O)[C@H](CCCN)NC(=O)[C@H](CCN)NC(=O)[C@H](C(C)(C)C)NC(=O)[C@H](NC1=O)C(C)(C)SSC2(C)C [Example 33, cyclo(-Leu-Pen-tBuGly-Dab-Orn-DDab-Dab-Trp-Dab-Chg-Pen-Ser-^DPro-Pro-)] (cyclo(L[dPen][Tle][Dab][Orn][dDab][Dab]W[Dab][Chg][dPen]S[dP]P); disulfide 2-11)					1%	1 µg/mL	2 µg/mL	1 µg/mL
CC(C)C[C@@H]1NC(=O)[C@H](CCCNC(=N)N)NC(=O)[C@@H](CCN)NC(=O)[C@H](C(C)C)NC(=O)[C@H](CO)NC(=O)[C@H](C(C)C)NC(=O)[C@@H]2CSSC[C@H](NC(=O)[C@H](Cc3ccc(O)cc3)NC(=O)[C@H](CO)NC1=O)C(=O)N[C@@H](CCCN)C(=O)N[C@H](CCN)C(=O)N[C@@H](CCN)C(=O)N[C@@H](Cc1ccccc1)C(=O)N2 [Example 39, cyclo(-Leu-Ser-Tyr-Cys-Orn-^DDab-Dab-Phe-Cys-Val-Ser-Val-^DDab-Arg-)] (HELM PEPTIDE1{C.[Orn].[NCC[C@@H](N[*:1])C(=O)[*:2]].[Dab].F.C.V.S.V.[NCC[C@@H](N[*:1])C(=O)[*:2]].R.L.S.Y}$PEPTIDE1,PEPTIDE1,1:R3-6:R3|PEPTIDE1,PEPTIDE1,1:R1-14:R2$$$V2.0)					4.5%	0.5 µg/mL	0.25 µg/mL	0.5 µg/mL
